Measured values published in patent US20160100579A1, “NEMATICIDAL N-(2-SUBSTITUTED 2-PHENYLETHYL)CARBOXAMIDES AND N-(2-SUBSTITUTED 2-PHENYLETHYL)-THIOCARBOXAMIDES” (priority 2013, published 2016).

Test: Measurement of log P values by HPLC on reversed phase columns (EEC directive 79/831 Annex V.A8; methods [a] pH 2.3, [b] pH 2.7, [c] pH 7.8)
Format: physicochemical
Description: Measurement of log P-values:
Measurement of log P values was performed according EEC directive 79/831 Annex V.A8 by HPLC (High Performance Liquid Chromatography) on reversed phase columns with the following methods:
^[a] Measurement was done at pH 2.3 with 0.1% phosphoric acid and acetonitrile as eluent with a linear gradient from 10% acetonitrile to 95% acetonitrile.
^[b] measurement of LC-MS was done at pH 2.7 with 0.1% formic acid in water and with acetonitrile (contains 0.1% formic acid) as eluent with a linear gradient from 10% acetonitrile to 95% acetonitrile.
^[c] Measurement with LC-MS was done at pH 7.8 with 0.001 molar ammonium hydrogen carbonate solution in water as eluent with a linear gradient from 10% acetonitrile to 95% acetonitrile.
Calibration was done with not branched alkan2-ones (with 3 to 16 carbon atoms) with known log P-values (measurement of log P values using retention times with linear interpolation between successive alkanones).. lambda-maX-values were determined using UV-spectra from 200 nm to 400 nm and the peak values of the chromatographic signals.

[1] = method [b]: LC-MS, pH 2.7, 0.1% formic acid in water / acetonitrile
[2] = method [b]: LC-MS at pH 2.7, 0.1% formic acid in water / acetonitrile
[3] = method [c]: LC-MS at pH 7.8, 0.001 molar ammonium hydrogen carbonate in water / acetonitrile
[4] = method [c]: LC-MS, pH 7.8, 0.001 molar ammonium hydrogen carbonate / acetonitrile
[5] = method [a]: HPLC, pH 2.3, 0.1% phosphoric acid / acetonitrile

| Compound | logP [1] | log P [2] | log P [3] | further results |
| --- | --- | --- | --- | --- |
| CCOC(c1ccc(Cl)cc1Cl)C(C)NC(=O)c1c(C(F)F)nn(C)c1Cl (centres unmarked) [Compound 46] | 4.46^[b] | – | – | – |
| COC(CNC(=O)c1cccnc1C(F)F)c1cc(Cl)cc(Cl)c1 (centres unmarked) [Compound 117] | – | 2.88^[b] | – | – |
| COC(CNC(=O)c1cccnc1C(F)F)c1ccc(Cl)cc1Cl (centres unmarked) [Compound 101] | 2.80^[b] | – | – | – |
| COC(c1cc(Cl)cc(Cl)c1)C(C)NC(=O)c1cccnc1C(F)F (centres unmarked) [Compound 93] | 2.03^[b] | – | – | – |
| COC(c1ccc(Cl)cc1)C(C)(C)NC(=O)c1sccc1I (centres unmarked) [Compound 87] | 4.77^[b] | – | – | logP [4]: 4.47^[c]; |
| COC(CNC(=O)c1c(F)cccc1F)c1ccc(Cl)cc1 (centres unmarked) [Compound 72] | 2.81^[b] | – | – | logP [4]: 2.79^[c]; |
| COC(c1ccc(Cl)cc1Cl)C(C)NC(=O)c1c(C)c(C)nn1C(F)F (centres unmarked) [Compound 116] | – | 3.97^[b] | 3.84^[c]; | – |
| COC(CNC(=O)c1cccnc1Cl)c1cc(Cl)cc(Cl)c1 (centres unmarked) [Compound 118] | – | 2.82^[b] | – | – |
| COC(CNC(=O)c1c(C(F)F)nn(C)c1Cl)c1ccc(Cl)cc1Cl (centres unmarked) [Compound 44] | 3.48^[b] | – | – | – |
| COC(c1ccc(Cl)cc1Cl)C(C)NC(=O)c1cn(C)nc1C(F)F (centres unmarked) [compound 17] | 3.25^[b] | – | – | – |
| COC(c1cc(Cl)cc(Cl)c1)C(C)NC(=O)c1nccnc1C(F)(F)F (centres unmarked) [Compound 95] | 3.74^[b] | – | – | – |
| COC(c1cc(Cl)cc(Cl)c1)C(C)NC(=O)c1cccnc1Cl (centres unmarked) [Compound 94] | 3.17^[b] | – | – | – |
| COC(c1ccc(Cl)cc1)C(C)(C)NC(=O)c1sccc1Cl (centres unmarked) [Compound 86] | 4.72^[b] | – | – | logP [4]: 4.43^[c]; |
| COC(c1ccc(Cl)cc1Cl)C(C)(C)NC(=O)c1ccccc1C(F)(F)F (centres unmarked) [Compound 76] | 4.68^[b] | – | – | logP [4]: 4.62^[c]; |
| COC(c1ccc(Cl)cc1Cl)C1(NC(=O)c2cccnc2C(F)F)CC1 (centres unmarked) [Compound 97] | 3.06^[b] | – | – | – |
| Cc1ccc(COC(CNC(=O)c2sccc2C)c2ccc(Cl)cc2)cc1 (centres unmarked) [compound 5] | – | – | – | logP [5]: 4.62^[a] |
| CCC(NC(=O)c1cccnc1C(F)(F)F)C(OC)c1ccc(Cl)cc1Cl (centres unmarked) [Compound 91] | 3.70^[b] | – | – | – |
| COC(CNC(=O)c1c(C(F)F)nn(C)c1F)c1cc(Cl)cc(Cl)c1 (centres unmarked) [Compound 41] | 3.33^[b] | – | – | – |
| CCC(NC(=O)c1cccnc1C(F)F)C(OC)c1ccc(Cl)cc1Cl (centres unmarked) [Compound 90] | 3.35^[b] | – | – | – |
| CCn1nc(C)c(C)c1C(=O)NC(C)C(OC)c1ccccc1 (centres unmarked) [Compound 55] | 2.71^[b] | – | – | – |
| COC(c1ccc(Cl)cc1Cl)C(C)(C)NC(=O)c1ccccc1Cl (centres unmarked) [Compound 75] | 4.59^[b] | – | – | logP [4]: 4.54^[c]; |
| COC(c1ccc(Cl)cc1)C(C)NC(=O)c1snc(Cl)c1Cl (centres unmarked) [Compound 61] | 4.34^[b] | – | – | – |
| COC(c1ccc(Cl)cc1Cl)C1(NC(=O)c2c(C(F)F)nn(C)c2F)CC1 (centres unmarked) [Compound 51] | 3.46^[b] | – | – | – |
| COC(c1cc(Cl)cc(Cl)c1)C(C)NC(=O)c1c(C(F)F)nn(C)c1Cl (centres unmarked) [Compound 42] | 3.92^[b] | – | – | – |
| COC(c1ccccc1Cl)C(C)NC(=O)c1ccccc1[N+](=O)[O-] (centres unmarked) [Compound 138] | – | 2.82^[b] | 2.78^[c]; | – |
| C#CCOC(c1ccc(Cl)cc1)C(C)(C)NC(=O)c1sccc1C (centres unmarked) [compound 4] | – | – | – | logP [5]: 4.22^[a] |
| COC(CNC(=O)c1cccnc1Cl)c1ccc(Cl)cc1Cl (centres unmarked) [Compound 102] | 2.75^[b] | – | – | – |
| COC(c1ccc(Cl)cc1)C(C)NC(=O)c1ccccc1[N+](=O)[O-] (centres unmarked) [Compound 139] | – | 2.83^[b] | 2.93^[c]; | – |
| COC(c1ccc(Cl)cc1)C(C)NC(=O)c1ccccc1F (centres unmarked) [Compound 133] | – | 3.40^[b] | 3.44^[c]; | – |

Now from value to compound, other results behind:

| logP [1] | log P [2] | log P [3] | Compound | further results |
| --- | --- | --- | --- | --- |
| – | 4.69^[b] | – | COC(c1ccc(Cl)cc1Cl)C(C)N(C(=O)c1nccnc1C(F)(F)F)C1CC1 (centres unmarked) [Compound 174] | – |
| – | 4.35^[b] | 4.33^[c]; | CCOC(c1ccc(Cl)cc1Cl)C(C)NC(=O)c1ccccc1C (centres unmarked) [Compound 198] | – |
| – | 3.89^[b] | 3.85^[c]; | CCOC(c1ccc(Cl)cc1Cl)C(C)NC(=O)c1nccnc1Cl (centres unmarked) [Compound 214] | – |
| – | 4.03^[b] | – | COC(c1ccc(Cl)cc1Cl)C(C)N(C(=O)c1cccnc1Cl)C1CC1 (centres unmarked) [Compound 170] | – |
| – | 2.91^[b] | 2.86^[c]; | COC(c1ccc(F)cc1)C(C)NC(=O)c1ccccc1C (centres unmarked) [Compound 188] | – |
| – | 4.11^[b] | – | COC(CN(C(=O)C1=C(C)OCCS1)C1CC1)c1ccc(Cl)cc1Cl (centres unmarked) [Compound 169] | – |
| – | 4.66^[b] | 4.65^[c]; | CCOC(c1ccc(Cl)cc1Cl)C(C)NC(=O)c1ccccc1F (centres unmarked) [Compound 195] | – |
| – | 2.99^[b] | 2.95^[c]; | COC(c1ccc(F)cc1)C(C)NC(=O)c1ccccc1Br (centres unmarked) [Compound 186] | – |
| – | 3.04^[b] | 3.02^[c]; | COC(c1ccc(F)cc1)C(C)NC(=O)c1ccccc1F (centres unmarked) [Compound 183] | – |
| – | 3.26^[b] | 3.23^[c]; | COC(c1ccccc1Cl)C(C)NC(=O)c1ccccc1C (centres unmarked) [Compound 148] | – |
| – | 3.05^[b] | – | COC(c1ccc(Cl)cc1Cl)C1(NC(=O)c2cc(C)nn2C)CC1 (centres unmarked) [compound 125] | – |
| – | 2.80^[b] | 2.76^[c]; | COC(c1ccc(F)cc1)C(C)NC(=O)c1c(F)cccc1F (centres unmarked) [Compound 185] | – |
| – | 4.30^[b] | – | COC(c1ccc(Cl)cc1Cl)C(C)N(C(=O)C1=C(C)OCCS1)C1CC1 (centres unmarked) [Compound 172] | – |
| – | 3.34^[b] | 3.31^[c]; | COC(c1ccccc1Cl)C(C)NC(=O)c1sc(C)nc1C(F)(F)F (centres unmarked) [Compound 212] | – |
| – | 3.08^[b] | – | COC(c1ccc(Cl)cc1Cl)C(C)NC(=O)c1cc(C)nn1C (centres unmarked) [compound 124] | – |
| – | 3.78^[b] | 3.75^[c]; | COC(c1ccc(Cl)cc1Cl)C1(NC(=O)c2ccccc2F)CC1 (centres unmarked) [Compound 155] | – |
| – | 3.82^[b] | 3.76^[c]; | COC(c1ccc(Cl)cc1Cl)C1(NC(=O)c2ccccc2Br)CC1 (centres unmarked) [Compound 151] | – |
| – | 4.45^[b] | 4.40^[c]; | CCOC(c1ccc(Cl)cc1Cl)C(C)NC(=O)c1ccccc1C(F)F (centres unmarked) [Compound 199] | – |
| – | 4.44^[b] | – | COC(c1ccc(Cl)cc1Cl)C(C)N(C(=O)c1cccnc1C(F)(F)F)C1CC1 (centres unmarked) [Compound 173] | – |
| – | 5.39^[b] | – | COC(c1ccc(Cl)cc1Cl)C(C)N(C(=O)c1ncc(Cl)cc1C(F)(F)F)C1CC1 (centres unmarked) [Compound 159] | – |
| – | 4.51^[b] | 4.56^[c]; | CCOC(c1ccc(Cl)cc1Cl)C(C)NC(=O)c1ccccc1I (centres unmarked) [Compound 197] | – |
| – | 4.37^[b] | – | COC(CN(C(=O)c1nccnc1C(F)(F)F)C1CC1)c1ccc(Cl)cc1Cl (centres unmarked) [Compound 168] | – |
| – | 3.92^[b] | 3.88^[c]; | COC(c1ccc(Cl)cc1Cl)C1(NC(=O)c2ccccc2I)CC1 (centres unmarked) [Compound 152] | – |
| – | 3.94^[b] | – | COC(c1ccc(Cl)cc1Cl)C1(NC(=O)c2cc([N+](=O)[O-])nn2C(F)F)CC1 (centres unmarked) [compound 122] | – |
| – | 3.92^[b] | – | COC(c1ccc(Cl)cc1Cl)C(C)N(C(=O)c1cccnc1C(F)F)C1CC1 (centres unmarked) [Compound 171] | – |
| – | 4.16^[b] | – | COC(CN(C(=O)c1cccnc1C(F)(F)F)C1CC1)c1ccc(Cl)cc1Cl (centres unmarked) [Compound 166] | – |
| – | 4.55^[b] | 4.53^[c]; | CCOC(c1ccc(Cl)cc1Cl)C(C)NC(=O)c1c(F)cccc1C(F)(F)F (centres unmarked) [Compound 193] | – |
